Measurements as given in ChEMBL document CHEMBL1201862, “PubChem BioAssay data set” (2004).
Active and inactive are the calls of the source.

Assays:
Paired box protein Pax-8 = Paired box protein Pax-8 (Homo sapiens, UniProt Q06710); experiment: PAX8 transcriptional activity inhibition in RMG-I – RMG-I cells, luciferase, cherry-pick, dose response (AID 687027); type: functional, cell-based;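 note: luciferase reporter driven by Pax8 target thyroperoxidase promoter measured by SteadyGlo luminescence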
Paired box protein Pax-8, sequence (Q06710 whole entry): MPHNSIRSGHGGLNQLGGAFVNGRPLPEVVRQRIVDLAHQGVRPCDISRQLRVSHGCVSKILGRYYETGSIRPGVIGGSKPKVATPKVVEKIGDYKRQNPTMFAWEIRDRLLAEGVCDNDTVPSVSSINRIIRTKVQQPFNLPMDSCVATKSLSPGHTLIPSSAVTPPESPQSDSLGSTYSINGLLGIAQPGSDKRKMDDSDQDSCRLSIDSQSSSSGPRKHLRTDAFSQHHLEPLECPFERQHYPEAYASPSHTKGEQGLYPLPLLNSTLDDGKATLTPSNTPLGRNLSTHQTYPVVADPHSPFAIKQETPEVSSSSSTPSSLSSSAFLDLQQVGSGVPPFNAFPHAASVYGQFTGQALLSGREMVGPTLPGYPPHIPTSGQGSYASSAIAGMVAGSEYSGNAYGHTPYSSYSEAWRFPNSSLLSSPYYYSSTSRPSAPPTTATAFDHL

[1] = IGROV1 cell killing – plate reader, dry powder samples, PAX8 inhibitor project, dose response (AID 743043); type: functional, cell-based; conditions: IGROV-1
[2] = OVCAR8 cell viability loss – plate reader, dry powder samples, PAX8 project, dose response (AID 743197); type: functional, cell-based; conditions: OVCAR-8
[3] = biological target: 1-phosphatidylinositol 4,5-bisphosphate phosphodiesterase gamma-1 (Homo sapiens, UniProt P19174); experiment: Counterscreen for inhibitors of phospholipase C isozymes (PLC-B3): Fluorescence-based biochemical high throughput dose response assay to identify inhibitors of phospholipase C isozymes (PLC-gamma1).
1-phosphatidylinositol 4,5-bisphosphate phosphodiesterase gamma-1, sequence (P19174 whole entry): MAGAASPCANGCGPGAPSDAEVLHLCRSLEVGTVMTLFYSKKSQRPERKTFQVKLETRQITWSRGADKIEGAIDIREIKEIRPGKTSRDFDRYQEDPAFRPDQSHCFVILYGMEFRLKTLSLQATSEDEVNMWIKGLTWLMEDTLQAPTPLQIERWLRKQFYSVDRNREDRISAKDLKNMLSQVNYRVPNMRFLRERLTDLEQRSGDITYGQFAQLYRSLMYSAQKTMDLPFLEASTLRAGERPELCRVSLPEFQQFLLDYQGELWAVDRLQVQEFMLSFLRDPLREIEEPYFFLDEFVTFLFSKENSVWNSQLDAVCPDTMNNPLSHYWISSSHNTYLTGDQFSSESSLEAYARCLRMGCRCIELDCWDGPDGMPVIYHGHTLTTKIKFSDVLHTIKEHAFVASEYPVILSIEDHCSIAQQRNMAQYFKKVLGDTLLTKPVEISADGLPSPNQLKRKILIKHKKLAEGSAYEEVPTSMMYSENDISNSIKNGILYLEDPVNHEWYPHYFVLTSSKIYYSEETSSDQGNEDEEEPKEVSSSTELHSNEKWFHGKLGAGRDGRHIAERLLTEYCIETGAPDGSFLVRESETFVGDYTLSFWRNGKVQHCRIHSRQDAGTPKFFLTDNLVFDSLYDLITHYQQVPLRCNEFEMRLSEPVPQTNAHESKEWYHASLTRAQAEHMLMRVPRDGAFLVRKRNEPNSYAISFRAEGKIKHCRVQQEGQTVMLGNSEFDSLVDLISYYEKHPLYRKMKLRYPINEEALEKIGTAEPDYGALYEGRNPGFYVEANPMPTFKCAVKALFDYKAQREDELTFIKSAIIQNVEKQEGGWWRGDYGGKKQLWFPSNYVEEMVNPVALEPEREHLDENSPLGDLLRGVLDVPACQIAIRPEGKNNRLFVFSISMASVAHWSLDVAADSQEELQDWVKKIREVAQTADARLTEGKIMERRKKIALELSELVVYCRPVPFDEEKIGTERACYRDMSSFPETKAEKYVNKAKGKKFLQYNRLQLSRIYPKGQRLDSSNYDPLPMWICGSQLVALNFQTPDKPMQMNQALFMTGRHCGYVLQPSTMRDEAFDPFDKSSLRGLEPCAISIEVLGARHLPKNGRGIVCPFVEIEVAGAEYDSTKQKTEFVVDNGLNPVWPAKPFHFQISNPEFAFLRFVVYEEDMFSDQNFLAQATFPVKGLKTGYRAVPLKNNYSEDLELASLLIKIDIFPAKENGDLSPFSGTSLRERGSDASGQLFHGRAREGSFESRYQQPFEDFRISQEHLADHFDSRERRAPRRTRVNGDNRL

[4] = biological target: 1-phosphatidylinositol 4,5-bisphosphate phosphodiesterase beta-3 (Homo sapiens, UniProt Q01970); experiment: Fluorescence-based biochemical high throughput dose response assay to identify inhibitors of phospholipase C isozymes (PLC-B3).
1-phosphatidylinositol 4,5-bisphosphate phosphodiesterase beta-3, sequence (Q01970 whole entry): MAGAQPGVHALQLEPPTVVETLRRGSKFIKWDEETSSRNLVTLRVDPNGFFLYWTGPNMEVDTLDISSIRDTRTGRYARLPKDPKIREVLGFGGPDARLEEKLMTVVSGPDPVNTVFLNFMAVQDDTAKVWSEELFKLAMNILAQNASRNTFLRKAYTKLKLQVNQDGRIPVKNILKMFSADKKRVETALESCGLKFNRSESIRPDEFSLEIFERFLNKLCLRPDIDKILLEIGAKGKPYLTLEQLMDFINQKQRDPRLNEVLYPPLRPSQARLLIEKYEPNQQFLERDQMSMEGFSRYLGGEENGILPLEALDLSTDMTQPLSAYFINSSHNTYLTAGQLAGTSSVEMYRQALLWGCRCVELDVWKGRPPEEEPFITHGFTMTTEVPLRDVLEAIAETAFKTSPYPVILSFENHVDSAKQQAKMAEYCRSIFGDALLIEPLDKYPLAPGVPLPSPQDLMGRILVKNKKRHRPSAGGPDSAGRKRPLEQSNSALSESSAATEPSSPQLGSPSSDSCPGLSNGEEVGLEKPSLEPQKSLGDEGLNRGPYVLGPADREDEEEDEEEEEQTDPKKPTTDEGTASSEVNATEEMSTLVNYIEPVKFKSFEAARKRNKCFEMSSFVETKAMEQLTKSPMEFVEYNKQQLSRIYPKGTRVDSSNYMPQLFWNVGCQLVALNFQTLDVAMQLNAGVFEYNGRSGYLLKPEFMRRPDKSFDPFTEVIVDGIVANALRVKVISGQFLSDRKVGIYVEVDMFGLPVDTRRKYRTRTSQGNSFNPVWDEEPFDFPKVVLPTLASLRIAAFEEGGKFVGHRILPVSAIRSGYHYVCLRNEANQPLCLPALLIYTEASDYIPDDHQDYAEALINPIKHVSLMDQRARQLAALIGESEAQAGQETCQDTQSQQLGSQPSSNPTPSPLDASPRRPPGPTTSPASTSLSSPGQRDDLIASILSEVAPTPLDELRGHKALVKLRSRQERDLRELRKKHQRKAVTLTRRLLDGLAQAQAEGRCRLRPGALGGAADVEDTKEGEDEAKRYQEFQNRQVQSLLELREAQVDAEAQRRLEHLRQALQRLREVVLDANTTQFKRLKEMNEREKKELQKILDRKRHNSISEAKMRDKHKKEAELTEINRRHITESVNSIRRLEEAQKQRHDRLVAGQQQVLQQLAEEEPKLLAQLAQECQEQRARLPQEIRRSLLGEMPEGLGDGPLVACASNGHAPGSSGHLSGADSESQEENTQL

[5] = A549 cell cytotoxicity, dose response, cytotoxicity control, plate reader, cherry-pick, antagonist series (AID 743412); type: functional, cell-based
[6] = toxicity toward HepG2 liver cells – cell-based, plate reader, cherry-pick, antagonist series, cytotoxicity control, dose response (AID 743416); type: functional
[7] = blockers of bursicon-stimulated LGR2 cAMP reporter – cell-based, HEK293, CRE-luciferase reporter, cherry pick, set 2, dose response (AID 743343); type: functional;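 note: transfected cells were stimulated with diluted bursicon conditioned medium after compound addition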
[8] = viability loss in HepG2 hepatoma cells – cell-based, ATP luminescence, cherry-pick, activator set 2, cytotoxicity control, dose response (AID 1053143); type: functional
[9] = blockade of melanocortin 4 receptor signaling – cell-based, plate reader, cherry pick, counter-screen for LGR2 antagonist project, dose response (AID 743444); type: functional;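 note: transfected HEK 293 cells stimulated with alpha-MSH peptide; potency of inhibitors of the alpha-MSH evoked signal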
[10] = viability loss in HEK293 cells – cell-based, plate reader, cherry-picked samples, cytotoxicity control, dose response (AID 743446); type: functional
Nonstructural protein 1 = Nonstructural protein 1 (Influenza A virus, UniProt Q194T2); type: functional, Influenza A virus (A/California/07/2009(H1N1))
Nonstructural protein 1, sequence (Q194T2 whole entry): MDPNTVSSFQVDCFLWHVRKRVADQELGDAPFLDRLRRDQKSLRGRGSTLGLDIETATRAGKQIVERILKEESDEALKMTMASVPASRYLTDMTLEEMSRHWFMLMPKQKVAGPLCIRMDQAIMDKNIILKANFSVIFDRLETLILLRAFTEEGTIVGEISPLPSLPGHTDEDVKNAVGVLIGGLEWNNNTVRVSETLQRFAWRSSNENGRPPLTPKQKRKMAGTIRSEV

In the case of `C[C@@H]1CN([C@@H](C)CO)C(=O)c2cc(NC(=O)Cc3ccccc3)ccc2O[C@@H](C)CCCCO[C@H]1CN(C)Cc1ccc(C(F)(F)F)cc1`, the AC50 (Paired box protein Pax-8) is reported as 9.1 µM (active), the AC50 [1] is reported as 44.6 µM (active) and the AC50 [2] is reported as > 70 µM (inactive).

For `COCCNCCCOc1ccc(Br)cc1Cl`, the IC50 [3] was > 123 µM (inactive) and the IC50 [4] was > 123 µM (inactive).

In the case of `c1csc(-c2nc(CN3CCSCC3)cs2)c1`, the AC50 [5] is reported as > 52 µM (inactive), the AC50 [6] is reported as > 52 µM (inactive) and the AC50 [7] is reported as 18.8 µM (active). The AC50 [8] was 26 µM (active), the AC50 [9] was 14.8 µM (active) and the AC50 [10] was > 52 µM (inactive).

With `Cc1ccc(S(=O)(=O)NC2=C(N3CCN(c4ccccc4F)CC3)C(=O)c3ccccc3C2=O)cc1` the IC50 (Nonstructural protein 1) was 32.5 µM (active), the IC50 [3] was > 122 µM (inactive) and the IC50 [4] was > 122 µM (inactive).
